This test concerns the target ASGPR (Homo sapiens (Human), UniProt P07306). The experiment in a line: Affinity to ASGPR measured by surface plasmon resonance (SPR). Format: binding.
[1] abbreviates: ASGPR ligands, Table 4, class symbols, read-out: ASGPR_PR Binding KD.
Where [2] appears, read: ASGPR ligands, Table 2, Biacore 8K, 25° C., steady state fit, read-out: SPR Binding External Calculation: KD.
The mark [3] stands for this setting: ASGPR ligands, Table 4, numeric lower bounds, read-out: ASGPR_PR Binding KD.

Read-outs that look alike come from different tables or passages of the source.

Sequence of ASGPR (P07306 whole entry): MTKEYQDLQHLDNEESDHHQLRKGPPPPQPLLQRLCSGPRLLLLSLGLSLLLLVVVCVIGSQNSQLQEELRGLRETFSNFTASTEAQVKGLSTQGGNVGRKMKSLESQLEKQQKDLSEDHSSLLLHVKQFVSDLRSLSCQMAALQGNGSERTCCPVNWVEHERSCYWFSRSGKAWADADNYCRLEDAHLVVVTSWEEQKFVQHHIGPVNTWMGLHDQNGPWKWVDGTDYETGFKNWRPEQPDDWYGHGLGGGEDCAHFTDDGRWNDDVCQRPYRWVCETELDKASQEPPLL

As usually defined, the Kd is the concentration at which binding is half-saturated. `OC[C@H]1OC[C@H](Nc2cncc(C(F)(F)F)n2)[C@@H](O)[C@H]1O` [Compound A315]: the dissociation constant Kd under setting [1] is less than 100 µM.

Consider `OC[C@H]1OC[C@H](Nc2ncccn2)[C@@H](O)[C@H]1O` [Compound A318], for which, under setting [1], the Kd was less than 100 µM.

Regarding `CC(=O)N[C@@H]1CO[C@H](CO)[C@H](O)[C@@H]1O` [Compound A127, N-((3R,4R,5R,6R)-4,5-dihydroxy-6-(hydroxymethyl)tetrahydro-2H-pyran-3-yl)acetamide], under setting [2], the Kd was less than 100 µM.

Regarding `OC[C@H]1OC[C@@H](Cn2cnnn2)[C@@H](O)[C@H]1O` [Compound A196, (2R,3R,4R,5R)-5-((1H-tetrazol-1-yl)methyl)-2-(hydroxymethyl)tetrahydro-2H-pyran-3,4-diol], the dissociation constant Kd under setting [2] is less than 100 µM.

For the compound `CO[C@@H]1O[C@H](CO)[C@H](O)[C@H](O)[C@H]1Nc1ncc(F)cc1F` [Compound A383, (2R,3R,4R,5R,6R)-5-((3,5-difluoropyridin-2-yl)amino)-2-(hydroxymethyl)-6-methoxytetrahydro-2H-pyran-3,4-diol], the Kd under setting [1] was less than 100 µM.

`OC[C@@]12CO[C@@H](O1)[C@H](Nc1nccc(C(F)(F)F)n1)[C@@H](O)[C@H]2O` [Compound A289]: under setting [1], the Kd is less than 100 µM.

On to `N#Cc1ccnc(N[C@H]2CO[C@H](CO)[C@H](O)[C@@H]2O)n1` [Compound A309], for which the Kd under setting [1] was less than 100 µM.

For the compound `CO[C@H]1O[C@H](CO)[C@H](O)[C@H](O)[C@H]1Nc1ncc(Cl)cc1F` [Compound A113], the dissociation constant (Kd) under setting [2] was less than 100 µM.

Take `OC[C@H]1OC[C@@H](Nc2ncc(Cl)cc2F)[C@@H](O)[C@H]1O` [Compound A388]: the Kd under setting [3] was more than 20 µM.

With “(2R,3R,4R,5R)-2-(hydroxymethyl)-5-((4-methylpiperazin-1-yl)methyl)tetrahydro-2H-pyran-3,4-diol [Compound A212]”, under setting [1], the Kd lay in the range of 100 to 500 µM.

On to `CO[C@@H]1O[C@H](CO)[C@H](O)[C@H](O)[C@H]1N` [Compound A90, (2R,3R,4R,5R,6R)-5-amino-2-(hydroxymethyl)-6-methoxytetrahydro-2H-pyran-3,4-diol], for which, under setting [2], the dissociation constant Kd was 100 to 500 µM.

Consider `COc1cc(C#N)nc(N[C@H]2[C@H]3OC[C@](CO)(O3)[C@H](O)[C@@H]2O)n1` [Compound A294, 2-(((1S,2R,3R,4R,5S)-2,3-dihydroxy-1-(hydroxymethyl)-6,8-dioxabicyclo[3.2.1]octan-4-yl)amino)-6-methoxypyrimidine-4-carbonitrile], for which the dissociation constant (Kd) under setting [1] was less than 100 µM.

Take `CO[C@H]1O[C@H](CO)[C@H](O)[C@H](O)[C@H]1Nc1cccc(C(F)(F)F)n1` [Compound A381]: the Kd under setting [1] is less than 100 µM.

On to `OC[C@H]1OC[C@H](Nc2nc(Br)ns2)[C@@H](O)[C@H]1O` [Compound A299, (2R,3R,4R,5S)-5-[(3-bromo-1,2,4-thiadiazol-5-yl)amino]-2-(hydroxymethyl)oxane-3,4-diol], for which the Kd under setting [1] was less than 100 µM.

For the compound `C=CCO[C@H]1O[C@H](CO)[C@H](O)[C@H](O)[C@H]1Nc1nccc(C(F)(F)F)n1` [Compound A406, (2R,3R,4R,5R,6S)-6-(allyloxy)-2-(hydroxymethyl)-5-((4-(trifluoromethyl)pyrimidin-2-yl)amino)tetrahydro-2H-pyran-3,4-diol], the dissociation constant Kd under setting [1] is less than 100 µM.

In the case of `CO[C@@H]1O[C@H](CO)[C@H](O)[C@H](O)[C@H]1Nc1cccc(F)n1` [Compound A107, (2R,3R,4R,5R,6R)-5-((6-fluoropyridin-2-yl)amino)-2-(hydroxymethyl)-6-methoxytetrahydro-2H-pyran-3,4-diol], the Kd under setting [2] was more than 1000 µM.

With `CC(=O)N[C@@H]1CO[C@@H]2COC(C)(C)O[C@@H]2[C@@H]1O` [Compound A127-2c, N-((4aR,7R,8R,8aR)-8-hydroxy-2,2-dimethylhexahydropyrano[3,2-d][1,3]dioxin-7-yl)acetamide], the Kd under setting [3] was more than 200 µM.

For the compound `Cc1cc(C(F)(F)F)nc(N[C@H]2CO[C@H](CO)[C@H](O)[C@@H]2O)n1` [Compound A334], under setting [1], the Kd was less than 100 µM.

In the case of `OC[C@H]1OC[C@H](Nc2cccc(C(F)(F)F)n2)[C@@H](O)[C@H]1O` [Compound A302], the Kd under setting [1] is less than 100 µM.

Take `OC[C@H]1OC=C(C(F)(F)F)[C@@H](O)[C@H]1O` [Compound A221-2, (2R,3R,4R)-2-(hydroxymethyl)-5-(trifluoromethyl)-3,4-dihydro-2H-pyran-3,4-diol]: the Kd under setting [3] was more than 200 µM.

For `CO[C@@H]1O[C@H](CO)[C@H](O)[C@H](O)[C@H]1Nc1nc(C(=O)O)cs1` [Compound A385], the Kd under setting [3] was more than 200 µM.

`CO[C@H]1O[C@H](CO)[C@H](O)[C@H](O)[C@H]1Nc1nc(Cl)c(C#N)s1` [Compound A379]: the Kd under setting [1] is less than 100 µM.

On to `O=[N+]([O-])c1ccc(NCCOCCOCCOCCOC[C@H]2OC[C@H](Nc3nccc(C(F)(F)F)n3)[C@@H](O)[C@H]2O)c([N+](=O)[O-])c1` [Compound 35, (2R,3R,4R,5S)-2-(13-((2,4-dinitrophenyl)amino)-2,5,8,11-tetraoxatridecyl)-5-((4-(trifluoromethyl)pyrimidin-2-yl)amino)tetrahydro-2H-pyran-3,4-diol], for which, under “ASGPR ligands with linker, Table 5, read-out: ASGPR_SPR Binding KD”, the dissociation constant Kd is less than 100 µM.

Take `OC[C@H]1OC[C@H](Nc2cnc(C(F)(F)F)cn2)[C@@H](O)[C@H]1O` [Compound A314]: under setting [3], the equilibrium dissociation constant (Kd) was more than 20 µM.

For the compound `C[C@@H]1CO[C@H](CO)[C@H](O)[C@@H]1O` [Compound A182, (2R,3R,4R,5R)-2-(hydroxymethyl)-5-methyltetrahydro-2H-pyran-3,4-diol], the dissociation constant Kd under setting [2] was more than 1000 µM.

As to `COc1cc(C(N)=O)cc(N[C@H]2CO[C@H](CO)[C@H](O)[C@@H]2O)n1` [Compound A365, 2-(((3S,4R,5R,6R)-4,5-dihydroxy-6-(hydroxymethyl)tetrahydro-2H-pyran-3-yl)amino)-6-methoxyisonicotinamide], the Kd under setting [3] was more than 20 µM.

Regarding `CC(=O)NCCC[C@@H]1CO[C@H](CO)[C@H](O)[C@@H]1O` [Compound A163, N-(3-((3R,4R,5R,6R)-4,5-dihydroxy-6-(hydroxymethyl)tetrahydro-2H-pyran-3-yl)propyl)acetamide], under setting [3], the dissociation constant (Kd) is more than 200 µM.

Regarding `CO[C@H]1O[C@H](CO)[C@H](O)[C@H](O)[C@H]1N` [Compound A91, (2R,3R,4R,5R,6S)-5-amino-2-(hydroxymethyl)-6-methoxytetrahydro-2H-pyran-3,4-diol], the dissociation constant Kd under setting [1] is less than 100 µM.

Regarding `CC(=O)NCCNC[C@@H]1CO[C@H](CO)[C@H](O)[C@@H]1O` [Compound A402, N-(2-((((3R,4R,5R,6R)-4,5-dihydroxy-6-(hydroxymethyl)tetrahydro-2H-pyran-3-yl)methyl)amino)ethyl)acetamide], the Kd under setting [3] was more than 200 µM.

`CO[C@@H]1O[C@H](COS(=O)(=O)c2ccc(C)cc2)[C@H](O)[C@H](O)[C@H]1NC(C)=O` [Compound A286]: the Kd under setting [2] was less than 100 µM.

`CO[C@@H]1O[C@H](CO)[C@H](O)[C@H](O)[C@H]1Nc1nc(N2CCN(C)CC2)ns1` [Compound A116, (2R,3R,4R,5R,6R)-2-(hydroxymethyl)-6-methoxy-5-((3-(4-methylpiperazin-1-yl)-1,2,4-thiadiazol-5-yl)amino)tetrahydro-2H-pyran-3,4-diol]: the equilibrium dissociation constant (Kd) under setting [2] was less than 100 µM.

Take `OC[C@H]1OC[C@H](Nc2ncc(Cl)c(C(F)(F)F)n2)[C@@H](O)[C@H]1O` [Compound A324]: the dissociation constant Kd under setting [1] was less than 100 µM.

For the compound `OC[C@H]1OC[C@H](Nc2cccc(C(F)(F)F)c2)[C@@H](O)[C@H]1O` [Compound A355, (2R,3R,4R,5S)-2-(hydroxymethyl)-5-((3-(trifluoromethyl)phenyl)amino) tetrahydro-2H-pyran-3,4-diol], the equilibrium dissociation constant (Kd) under setting [1] is less than 100 µM.

Source of the values: US20240072809A1, “ASGPR-BINDING COMPOUNDS FOR THE DEGRADATION OF EXTRACELLULAR PROTEINS” (Avilar Therapeutics, Inc., priority 2020, published 2024).
